Experimental findings from patent US7816560B1, “Long chain n-alkyl compounds and oxa-derivatives thereof” (Thomas Jefferson University, priority 1999, dated 2010) are described below.

Data set [1] deals with Hepatitis B virus (HBV). As to the kind of experiment: Secretion of enveloped HBV from Hep G2.2.15 cells, antigen capture/PCR assay. The data set is classed as cell-based. The settings on record: for IC50: Hepatitis B virus. An excerpt: Pairs of wells were used for each concentration point.
^2IC 50: The concentration of compound that prevented the secretion of 50% of the amount of HBV detected in the medium from wells containing untreated cultures.

Data set [2] has as its system HBV. As to the kind of experiment: Intracellular HBV DNA in HepG2.2.15 cells by Southern blot. Type of data set: cell-based, hepatitis B virus. The settings on record: seven days. How it is done:
Intracellular DNA analysis: Hep G2.2.15 cells were either left untreated or treated with the compounds listed above for seven days and the total DNA extracted as described (Mehta et al., ibid). DNA (20 μg) was digested with HindIII, resolved through a 1.2% agarose gel and transferred to nylon membranes. Membranes were then hybridized with a ^32P labeled probe containing the total HBV genome and developed as described (Lu et al., Proc. Natl. Acad. Sci. USA 94:2380-2385, 1997). The relaxed circular (rc), linear (lin), and closed circular (CCC) DNA were confirmed by enzymatic digestion.
An infected cell contains several forms of HBV DNA which represent different stages in the HBV life cycle. For example, covalently closed circular DNA (CCC DNA) is the nuclear form of the DNA and is thought to be the viral template (Heermann & Gerlich, 1992). In contrast, the relaxed circular DNA (re DNA) and linear forms (lin) are associated with the viral particle and their presence is an indicator of encapsidation of the viral pre-genomic RNA and the subsequent reverse transcription into progeny DNA (Ganem, Curr. Top. Microbiol. Immunol. 168:61-83, 1991). […] The amount of virus associated with the cells was detected seven days later by Southern blot analysis. The locations of the HBV relaxed circular DNA (rcDNA), covalently close circular (CCC) DNA, and single stranded (SS) DNA was identified by relative mobility.

Data set [3] deals with HBV. Put plainly: Secreted HBV DNA by Southern blot hybridization. The settings on record: HepG2.2.15 cells, seven days, 20 μg/ml. The data set is classed as cell-based, hepatitis B virus. The protocol: Secreted DNA analysis: Secreted DNA analysis was performed by the method of Wei et al. (J. Virol. 70:6455-6458, 1996). […] Media containing drug was changed every two days and on the 7th day the media taken and the virus concentrated by pelleting through 20% sucrose for 16 hours (SW 41 rotor, 36,000 RPM). Virus was resuspended in 400 μL of 10 mM TRIS (pH 7.9), 10 mM EDTA (pH 8.0), and 10 mM MgCl2. Samples were split into two 200 μL aliquots and labeled as +Dnase and −Dnase. To both tubes, 15 μl of proteinase K was added to a final concentration of 750 μg/ml for one hour at 37° C. After one hour, 10 pl Dnase was added to the tube labeled +Dnase (final concentration is 50 units/ml) and incubated at 37° C. for one hour. SDS was added to a final concentration of 1% and additional proteinase K added to a final concentration of 500 μg/ml and the reaction allowed to proceed at 37° C. for 3-4 hours. DNA was than purified by phenol/chloroform extraction. DNA was separated on 1% agarose gel and probed with ^32P labeled probes as described (Mehta et al., Proc. Natl. Acad. Sci. USA 94:1822-1827, 1997).
HepG2.2.15 cells were grown for seven days in the absence or presence of NB-DNJ (1000 μg/ml), NN-DNJ (20 μg/ml) or NN-DGJ (20 μg/ml), respectively. After seven days, virus was isolated from these cell cultures, concentrated, and purified. Secreted HBV DNA was detected by Southern blot hybridization. HBV viral DNA from untreated cells was readily detected. The secretion of HBV DNA from treated HepG2.2.15 was also detected.

In data set [4] the test system is BVDV. As to the kind of experiment: BVDV plaque reduction and yield assays in MDBK cells. Type of data set: cell-based, bovine viral diarrhea virus.
Data set [5] concerns the target T1, HBV polymerase (Hepatitis B virus genotype D subtype ayw, UniProt P03156).
T1 construct: HBV virions were purified from the culture medium of untreated cells by ultracentrifugation and the polymerase activity (in the presence of the indicated compounds) tested; expressed in transfected cells; host or cells: Hep G2.2.15 (HepG2 stably transfected with a dimer of the HBV genome); virions pelleted from the culture medium
Put plainly: Endogenous polymerase assay on purified HBV virions. Conditions: 69 μM. Type of data set: biochemical. The protocol:
Endogenous polymerase assay: Media containing HBV from Hep G2.2.15 cells was pelleted through 20% sucrose (SW 28 Rotor, 24,000 RPM) for 16 hours and the pellet re-suspended in 50 μl of a mixture containing 50 mM Tris (pH 7.5), 75 mM NH4Cl, 1 mM EDTA, 25 mM MgCl2, 0.1% β-mercaptoethanol, 0.5% NP-40, 0.4 mM each of dATP, dGTP, dTTP and 10 μl of P^32 labeled dCTP. […] DNA was purified by a phenol/chloroform extraction and ethanol precipitation.
HBV DNA replication involves the conversion of a pregenomic RNA (pgRNA) into DNA by the action of the HBV polymerase. Current nucleoside analogue drugs (e.g., 3TC) for treating HBV target this reaction, preventing the formation and secretion of HBV viral DNA. Because the iminosugar N-nonyl-DGJ prevents the formation of HBV rc DNA, it was important to determine whether N-nonyl-DGJ was acting by inhibiting the elongation step of the polymerase. HBV virions from normal and drug treated Hep G2.2.15 cells were purified and the endogenous polymerase activity was measured. HBV virions were purified from the culture medium of untreated cells by ultracentrifugation and the polymerase activity (in the presence of the indicated compounds) tested by the method of Ganem et al. (1998). Briefly, partially purified viral particles were incubated overnight with the indicated concentrations of compound and 10 μCi of ^32P-dCTP. Viral DNA was purified by phenol extraction and ethanol precipitation and resolved on a 1.2% agarose gel. The gel was dried and viral DNA bands detected using a Phospholmager.

For data set [6], the system named is Hep G2.2.15 cells. Put plainly: MTT toxicity in Hep G2.2.15 cultures. The settings on record: Hep G2.2.15 cultures at conclusion of experiment (10 days).
In data set [7] the test system is α-glucosidase. As to the kind of experiment: Inhibition of α-glucosidase. The data set is classed as biochemical. Conditions: Yes/No. From the text: The inhibitory activity (IC50) and the cell cytotoxicity (IC50) of various compounds, as well as their effect on α-glucosidase and ceramide glucosyl transferase, are shown in Table 2.
Data set [8] is described as follows: Toxicity / cell cytotoxicity in MDBK cells. The data set is classed as cell-based. The settings on record: bovine.

The CC50 is the concentration at which the toxic effect on the cells reaches its halfway point.

Where two headings read alike, the source gives them in different places.

T1 sequence (P03156 whole entry): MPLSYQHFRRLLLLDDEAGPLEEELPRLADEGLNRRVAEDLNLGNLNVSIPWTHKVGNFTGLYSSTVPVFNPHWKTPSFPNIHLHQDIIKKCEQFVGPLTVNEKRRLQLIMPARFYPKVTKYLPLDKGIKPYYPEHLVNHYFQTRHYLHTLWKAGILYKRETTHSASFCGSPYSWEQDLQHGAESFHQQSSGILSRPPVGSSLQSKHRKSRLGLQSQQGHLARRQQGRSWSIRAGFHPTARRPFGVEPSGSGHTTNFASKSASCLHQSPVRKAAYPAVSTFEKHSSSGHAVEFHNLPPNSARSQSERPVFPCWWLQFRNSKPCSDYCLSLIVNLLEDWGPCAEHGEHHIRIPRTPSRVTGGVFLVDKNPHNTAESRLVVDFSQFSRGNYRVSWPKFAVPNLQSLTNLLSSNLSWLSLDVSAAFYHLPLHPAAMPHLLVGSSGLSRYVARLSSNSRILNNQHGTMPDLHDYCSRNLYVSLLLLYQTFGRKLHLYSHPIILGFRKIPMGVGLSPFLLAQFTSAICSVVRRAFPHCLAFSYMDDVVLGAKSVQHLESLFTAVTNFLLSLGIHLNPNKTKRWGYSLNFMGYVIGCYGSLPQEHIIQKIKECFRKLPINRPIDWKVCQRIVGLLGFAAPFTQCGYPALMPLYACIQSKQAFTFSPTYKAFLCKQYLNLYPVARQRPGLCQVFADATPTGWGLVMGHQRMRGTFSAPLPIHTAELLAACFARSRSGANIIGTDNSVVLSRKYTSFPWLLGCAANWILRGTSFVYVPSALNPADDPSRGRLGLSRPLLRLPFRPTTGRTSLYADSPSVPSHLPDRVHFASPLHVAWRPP

`CCCCCCCCCN1C[C@H](O)[C@@H](O)[C@@H](O)[C@H]1CO` [N-nonyl DGJ, N-nonyl-1,5-dideoxy-1,5-imino-D-galactitol]: the “Reduction of enveloped HBV in the culture medium” value in data set [1] (Hep G2.2.15 cells, compared with untreated controls, nine days) is listed as “at least as effective as NN-DNJ in reducing the HBV secretion”. In addition, the IC50 is 1.5 to 5 µM in data set [1] (HepG2.2.15, 216 h, Hep G2.2.15 cells, nine days of incubation, read-out: IC 50, secretion of HBV); ~0.5 µM in data set [1] (HepG2.2.15, read-out: IC50, HBV secretion); 5 µM in data set [4] (Bovine viral diarrhea virus isolates and strains, MDBK, read-out: Anti-viral effect on BVDV in MDBK cells IC50). Besides, in data set [2] (2 or 20 μg/ml), the “Reduction of intracellular HBV DNA” value was “greater than 25 fold”. Moreover, the “Effect on intracellular HBV DNA” value in data set [2] (3TC 1 μg/ml, NB-DNJ 1000 μg/ml, NN-DNJ and NN-DGJ 2 or 20 μg/ml) was “almost complete disappearance of intracellular HBV DNA”. In data set [3], the “Decrease of secreted virus DNA” value is “about 14 fold”. Moreover, the “Anti-viral effect on BVDV in MDBK cells” value in data set [4] (Yes/No) is listed as “Yes”. For the same molecule, the “Effect on HBV polymerase activity” value in data set [5] is on record as “no effect on polymerase activity”. For the same molecule, the “TOX 50 (MTT activity reduced to 50%)” value in data set [6] was >200 µM. Also, the “Inhibitor of α glucosidase” value in data set [7] is listed as “No”. Also, in data set [8], the CC50 came to 250 µM.
